For 24 compounds, IC50 results are on record in patent US20250051319A1 (AUGUSTINE THERAPEUTICS, priority 2021, published 2025).

Test [1] concerns the target catalytic domain 2 (CD2) of HDAC6 (Homo sapiens (Human), UniProt Q9UBN7). Kind of test: Cellular target engagement assay - NanoBRET. It counts as cell-based. Particulars: NanoLuc-HDAC6(CD2) in HEK293T cells, 2 hours, read-out: IC50 (HDAC6(CD2) interaction).
Test [2] deals with human full-length recombinant HDAC6 (Homo sapiens (Human), UniProt Q9UBN7). In words: HDAC6 enzymatic activity assay (alternative protocol, Ac-Gly-Ala-Lys(Ac)-AMC). It counts as biochemical. Particulars: 5 nM enzyme, read-out: HDAC6 biochem. On the procedure:
(§1) Inhibition of HDAC enzymes was performed in 384-well plate format using human full-length recombinant HDAC1 and HDAC6, isolated from a baculovirus expression system in Sf9 cells (BPS Bioscience). Reaction buffer for HDAC1 contained 50 mM Tris HCl pH 8.0, 137 mM NaCl, 2.7 mM KCl, 1 mM MgCl2, 0.1 mg/mL BSA, and reaction buffer for HDAC6 contained 50 mM Tris/HCl, pH 8.0, 137 mM NaCl, 2.7 mM KCl, 250 μM EDTA, 1 mM DTT, 0.1 mg/mL BSA. Compounds (dissolved in 100% DMSO) or DMSO (vehicle) were diluted in assay buffer at 3× final assay concentration and then added to assay plates. SAHA ([…]) was used as a positive control. 3× final assay concentration of recombinant enzymes (final assay concentration is 4 nM and 5 nM for HDAC1 and HDAC6, respectively) were preincubated for 10 minutes with test compounds at room temperature. Afterwards, 3× final assay concentration of an acetylated fluorogenic peptide (Ac-Gly-Ala-Lys(Ac))-AMC, Bachem; final assay concentration is 12 µM and 40 µM for HDAC1 and HDAC6, respectively) was added to assay plate, allowing deacetylase reactions to incubate for 60 minutes at room temperature. The developer reagent containing 5 μM SAHA and 50 μM trypsin was added to stop the deacetylase reaction and generate AMNC-fluorescence. 15 minutes after addition of developer reagent, endpoint measurements were taken using CLARIOstar (BMG Labtech) plate reader (excitation/emission: 360/450). Fluorescence signals were normalized for each plate using GraphPad Prism software: reaction HDAC-substrate in presence of DMSO was set to 100% while reaction HDAC-substrate in presence of 10 μM SAHA was set to 0%.

Test [3] concerns the target human full-length recombinant HDAC1 (Homo sapiens (Human), UniProt Q13547). In words: HDAC1 enzymatic activity assay (alternative protocol, Ac-Gly-Ala-Lys(Ac)-AMC). It counts as biochemical. Particulars: 4 nM enzyme, read-out: HDAC1 biochem. On the procedure: as §1

Molecules are shown by their SMILES.

Sequence of human full-length recombinant HDAC1 (Q13547 whole entry): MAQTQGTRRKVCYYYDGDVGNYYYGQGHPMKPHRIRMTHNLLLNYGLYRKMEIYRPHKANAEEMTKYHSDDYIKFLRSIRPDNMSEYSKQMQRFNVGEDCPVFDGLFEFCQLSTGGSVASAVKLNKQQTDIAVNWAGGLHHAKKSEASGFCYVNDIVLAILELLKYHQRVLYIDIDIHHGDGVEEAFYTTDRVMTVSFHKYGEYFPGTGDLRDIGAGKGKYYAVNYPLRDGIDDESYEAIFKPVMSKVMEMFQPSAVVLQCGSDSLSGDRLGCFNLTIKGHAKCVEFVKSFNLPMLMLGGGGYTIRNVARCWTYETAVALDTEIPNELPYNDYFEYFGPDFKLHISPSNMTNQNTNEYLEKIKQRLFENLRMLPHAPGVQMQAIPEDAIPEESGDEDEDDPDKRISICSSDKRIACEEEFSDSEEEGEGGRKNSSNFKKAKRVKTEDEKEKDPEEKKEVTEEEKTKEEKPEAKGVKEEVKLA
Sequence of catalytic domain 2 (CD2) of HDAC6 (Q9UBN7 482-800): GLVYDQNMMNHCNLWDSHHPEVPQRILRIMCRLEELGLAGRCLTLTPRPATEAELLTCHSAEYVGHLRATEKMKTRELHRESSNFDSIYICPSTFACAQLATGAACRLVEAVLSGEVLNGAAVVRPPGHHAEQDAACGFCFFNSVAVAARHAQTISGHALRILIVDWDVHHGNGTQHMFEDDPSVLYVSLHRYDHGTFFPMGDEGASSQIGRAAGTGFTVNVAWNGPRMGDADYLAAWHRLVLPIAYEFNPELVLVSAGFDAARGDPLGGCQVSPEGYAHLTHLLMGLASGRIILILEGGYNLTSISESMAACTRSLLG
Sequence of human full-length recombinant HDAC6 (Q9UBN7 whole entry): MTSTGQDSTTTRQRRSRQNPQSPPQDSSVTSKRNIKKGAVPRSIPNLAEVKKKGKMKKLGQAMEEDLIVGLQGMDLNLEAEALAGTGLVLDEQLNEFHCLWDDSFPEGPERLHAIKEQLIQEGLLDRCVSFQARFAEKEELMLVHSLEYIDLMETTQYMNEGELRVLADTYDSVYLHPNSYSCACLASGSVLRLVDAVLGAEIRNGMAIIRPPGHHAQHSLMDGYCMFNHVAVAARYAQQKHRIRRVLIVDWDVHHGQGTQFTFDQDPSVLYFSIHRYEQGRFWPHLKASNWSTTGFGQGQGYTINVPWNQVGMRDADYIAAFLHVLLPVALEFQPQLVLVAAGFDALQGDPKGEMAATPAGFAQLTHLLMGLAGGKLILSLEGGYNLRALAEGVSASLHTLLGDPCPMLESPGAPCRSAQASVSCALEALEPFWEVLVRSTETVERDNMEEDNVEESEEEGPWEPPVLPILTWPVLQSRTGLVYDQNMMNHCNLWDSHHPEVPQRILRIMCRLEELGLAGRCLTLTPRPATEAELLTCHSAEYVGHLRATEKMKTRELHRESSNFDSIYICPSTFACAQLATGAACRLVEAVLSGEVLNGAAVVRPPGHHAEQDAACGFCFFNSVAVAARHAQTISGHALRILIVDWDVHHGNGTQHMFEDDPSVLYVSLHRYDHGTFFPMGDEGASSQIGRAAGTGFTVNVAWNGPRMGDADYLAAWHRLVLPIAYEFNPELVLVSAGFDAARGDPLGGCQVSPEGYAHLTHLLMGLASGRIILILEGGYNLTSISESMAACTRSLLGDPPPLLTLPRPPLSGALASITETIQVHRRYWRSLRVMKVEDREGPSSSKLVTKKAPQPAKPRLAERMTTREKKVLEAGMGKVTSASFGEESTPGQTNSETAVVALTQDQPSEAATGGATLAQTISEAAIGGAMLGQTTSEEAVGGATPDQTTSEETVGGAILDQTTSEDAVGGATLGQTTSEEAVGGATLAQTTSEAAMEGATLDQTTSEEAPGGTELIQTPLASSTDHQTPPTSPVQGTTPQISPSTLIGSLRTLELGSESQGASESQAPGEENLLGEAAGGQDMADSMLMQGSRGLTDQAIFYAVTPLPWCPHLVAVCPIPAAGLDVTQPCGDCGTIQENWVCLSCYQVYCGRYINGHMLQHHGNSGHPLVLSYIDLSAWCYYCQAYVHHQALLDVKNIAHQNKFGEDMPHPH

For `Cn1ncc2c(SCC(=O)c3ccc(CNC(=O)Cc4cccnc4)s3)ncnc21` [Compound 56, N-((5-(2-((1-methyl-1H-pyrazolo[3,4-d]pyrimidin-4-yl)thio)acetyl)thiophen-2-yl)methyl)-2-(160yrrolid-3-yl)acetamide], the IC50 in test [1] is at most 0.1 µM; in test [2], at most 0.1 µM; in test [3], above 10 µM.
As for `Cn1ncc2c(SCC(=O)c3ccc(CNC(=O)Cc4ccncc4)s3)ncnc21` [Compound 57, N-((5-(2-((1-methyl-1H-pyrazolo[3,4-d]pyrimidin-4-yl)thio)acetyl)thiophen-2-yl)methyl)-2-(160yrrolid-4-yl)acetamide], the values for the IC50 in test [1], in test [2] and in test [3] were 0.1 to 0.5 µM, at most 0.1 µM and above 10 µM, respectively.
Consider `COCC(=O)NCc1ccc(C(=O)CSc2ncnc3c2cnn3C)s1` [Compound 58, 2-methoxy-N-((5-(2-((1-methyl-1H-pyrazolo[3,4-d]pyrimidin-4-yl)thio)acetyl)thiophen-2-yl)methyl)acetamide], for which the IC50 in test [1] is 1 to 10 µM; in test [2] it was at most 0.1 µM; in test [3], above 10 µM.
Turning to `Cn1ncc2c(SCC(=O)c3ccc(CNC(=O)CO)s3)ncnc21` [Compound 59, 2-hydroxy-N-((5-(2-((1-methyl-1H-pyrazolo[3,4-d]pyrimidin-4-yl)thio)acetyl)thiophen-2-yl)methyl)acetamide], the figures for the IC50 in test [1], in test [2] and in test [3] were 0.1 to 0.5 µM, at most 0.1 µM and above 10 µM, respectively.
On to `Cn1ncc2c(SCC(=O)c3ccc(CNS(C)(=O)=O)s3)ncnc21` [Compound 87], for which the IC50 in test [1] was 0.1 to 0.5 µM; in test [2] it was at most 0.1 µM; in test [3], above 10 µM.
As for `Cn1ncc2c(SCC(=O)c3ccc(CNS(=O)(=O)Cc4ccccc4)s3)ncnc21` [Compound 90, N-((5-(2-((1-methyl-1H-pyrazolo[3,4-d]pyrimidin-4-yl)thio)acetyl)thiophen-2-yl)methyl)-1-phenylmethanesulfonamide], the values for the IC50 in test [1], in test [2] and in test [3] were 1 to 10 µM, at most 0.1 µM and above 10 µM, respectively.
In the same order, the values of `CN(Cc1ccc(C(=O)CSc2ncnc3c2cnn3C)s1)S(=O)(=O)C1CC1` [Compound 91, N-methyl-N-((5-(2-((1-methyl-1H-pyrazolo[3,4-d]pyrimidin-4-yl)thio)acetyl)thiophen-2-yl)methyl)cyclopropanesulfonamide] are 0.1 to 0.5 µM, at most 0.1 µM and above 10 µM.
In the case of `CN(Cc1ccc(C(=O)CSc2ncnc3c2cnn3C)s1)S(=O)(=O)Cc1ccncc1` [Compound 92, N-methyl-N-((5-(2-((1-methyl-1H-pyrazolo[3,4-d]pyrimidin-4-yl)thio)acetyl)thiophen-2-yl)methyl)-1-(162yrrolid-4-yl)methanesulfonamide], the results for the IC50 in test [1], in test [2] and in test [3] were 0.1 to 0.5 µM, at most 0.1 µM and 1 to 10 µM, respectively.
Regarding `Cc1nc(SCC(=O)c2ccc(CNS(=O)(=O)CC3CC3)s2)c2ccccc2n1` [Compound 93, 1-cyclopropyl-N-((5-(2-((2-methylquinazolin-4-yl)thio)acetyl)thiophen-2-yl)methyl)methanesulfonamide], the results for the IC50 in test [1], in test [2] and in test [3] were 0.1 to 0.5 µM, at most 0.1 µM and above 10 µM, respectively.
For `Cc1nc(SCC(=O)c2ccc(CCNS(C)(=O)=O)s2)c2ccccc2n1` [Compound 94, N-(2-(5-(2-((2-methylquinazolin-4-yl)thio)acetyl)thiophen-2-yl)ethyl)methanesulfonamide], the IC50 is 0.1 to 0.5 µM in test [1], at most 0.1 µM in test [2] and above 10 µM in test [3].
In the case of `CS(=O)(=O)N1CCC(c2ccc(C(=O)CSc3nc(C(F)(F)F)nc4ccccc34)s2)C1` (stereo not drawn) [Compound 95, 1-(5-(1-(methylsulfonyl)163yrrolidine-3-yl)thiophen-2-yl)-2-((2-(trifluoromethyl)quinazolin-4-yl)thio)ethanone], the IC50 in test [1] is 0.1 to 0.5 µM; in test [2], at most 0.1 µM; in test [3], above 10 µM.
For the compound `Cc1nc(SCC(=O)c2ccc(CNS(C)(=O)=O)s2)c2ccccc2n1` [Compound 97, N-((5-(2-((2-methylquinazolin-4-yl)thio)acetyl)thiophen-2-yl)methyl)methanesulfonamide], the IC50 in test [1] is 0.1 to 0.5 µM; in test [2] it was at most 0.1 µM; in test [3], 1 to 10 µM.
For the compound `CS(=O)(=O)NCCc1ccc(C(=O)CSc2nc(C(F)(F)F)nc3ccccc23)s1` [Compound 98, N-(2-(5-(2-((2-(trifluoromethyl)quinazolin-4-yl)thio)acetyl)thiophen-2-yl)ethyl)methanesulfonamide], the IC50 is at most 0.1 µM in test [1], at most 0.1 µM in test [2] and above 10 µM in test [3].
For the compound `CC(C)c1nc(SCC(=O)c2ccc(CNC(=O)C(C)(C)C)s2)c2ccccc2n1` [Example 1, N-((5-(2-((2-isopropylquinazolin-4-yl)thio)acetyl)thiophen-2-yl)methyl)pivalamide], the IC50 in test [1] was 0.1 to 0.5 µM; in test [2] it was at most 0.1 µM; in test [3], above 10 µM.
`CC(C)(C)C(=O)NCc1ccc(C(=O)CSc2nc(C3CC3)nc3ccccc23)s1` [Example 2, N-((5-(2-((2-cyclopropylquinazolin-4-yl)thio)acetyl)thiophen-2-yl)methyl)pivalamide]: the values for the IC50 in test [1], in test [2] and in test [3] were 0.1 to 0.5 µM, at most 0.1 µM and above 10 µM, respectively.
As for `Cc1nc(SCC(=O)c2ccc(CNC(=O)C(C)(C)C)s2)c2ccccc2n1` [Example 3, N-((5-(2-((2-methylquinazolin-4-yl)thio)acetyl)thiophen-2-yl)methyl)pivalamide], the values for the IC50 in test [1], in test [2] and in test [3] were at most 0.1 µM, at most 0.1 µM and 1 to 10 µM, respectively.
On to `COCc1nc(SCC(=O)c2ccc(CNC(=O)C(C)(C)C)s2)c2ccccc2n1` [Example 4, N-((5-(2-((2-(methoxymethyl)quinazolin-4-yl)thio)acetyl)thiophen-2-yl)methyl)pivalamide], for which the results for the IC50 in test [1], in test [2] and in test [3] were 0.5 to 1 µM, at most 0.1 µM and above 10 µM, respectively.
In the same order, the values of `Cc1nc(SCC(=O)c2ccc(CNC(=O)C(C)(C)C)s2)c2cnn(C)c2n1` [Example 5, N-((5-(2-((1,6-dimethyl-1H-pyrazolo[3,4-d]pyrimidin-4-yl)thio)acetyl)thiophen-2-yl)methyl)pivalamide] are 0.5 to 1 µM, at most 0.1 µM and above 10 µM.
In the case of `Cn1ncc2c(SCC(=O)c3ccc(CNC(=O)C(C)(C)C)s3)nc(C3CC3)nc21` [Example 6, N-((5-(2-((6-cyclopropyl-1-methyl-1H-pyrazolo[3,4-d]pyrimidin-4-yl)thio)acetyl)thiophen-2-yl)methyl)pivalamide], the IC50 in test [1] is 0.1 to 0.5 µM; in test [2], at most 0.1 µM; in test [3] it was above 10 µM.
The corresponding values for `Cc1nc(SCC(=O)c2ccc(CNC(=O)C(C)(C)C)s2)c2cccnc2n1` [Example 7, N-((5-(2-((2-methylpyrido[2,3-d]pyrimidin-4-yl)thio)acetyl)thiophen-2-yl)methyl)pivalamide] are at most 0.1 µM, at most 0.1 µM and 1 to 10 µM.
As for `Cc1nc(SCC(=O)c2ccc(CNC(=O)C(C)(C)C)s2)c2ccc(Cl)cc2n1` [Example 8, N-((5-(2-((7-chloro-2-methylquinazolin-4-yl)thio)acetyl)thiophen-2-yl)methyl)pivalamide], the figures for the IC50 in test [1], in test [2] and in test [3] were 0.1 to 0.5 µM, at most 0.1 µM and above 10 µM, respectively.
As to `Cc1nc(SCC(=O)c2ccc(CNC(=O)C(C)(C)C)s2)c2cc(F)ccc2n1` [Example 9, N-((5-(2-((6-fluoro-2-methylquinazolin-4-yl)thio)acetyl)thiophen-2-yl)methyl)pivalamide], the results for the IC50 in test [1], in test [2] and in test [3] were 0.1 to 0.5 µM, at most 0.1 µM and above 10 µM, respectively.
`Cc1nc(SCC(=O)c2ccc(CNC(=O)C(C)(C)C)s2)c2ccc(F)cc2n1` [Example 10, N-((5-(2-((7-fluoro-2-methylquinazolin-4-yl)thio)acetyl)thiophen-2-yl)methyl)pivalamide]: the results for the IC50 in test [1], in test [2] and in test [3] were 0.1 to 0.5 µM, at most 0.1 µM and above 10 µM, respectively.
The corresponding values for `Cc1ccc2c(SCC(=O)c3ccc(CNC(=O)C(C)(C)C)s3)nc(C)nc2c1` [Example 11, N-((5-(2-((2,7-dimethylquinazolin-4-yl)thio)acetyl)thiophen-2-yl)methyl)pivalamide] are 0.1 to 0.5 µM, at most 0.1 µM and above 10 µM.
